The values below come from ChEMBL document CHEMBL6115010, “Targeting glioma with heteroaromatic alkaloids: A review of potential therapeutics” (Bioorg Med Chem, 2025).

Each structure is given as a SMILES string.

Assay [1] concerns C6. Kind of assay: Cytotoxicity against rat C6 cells assessed as reduction in cell growth measured for 48 hrs by MTT assay. In kind it is functional, cell-based. Particulars: C6, 48 h.
Assay [2] deals with T98G. In words: Anticancer activity against human T98G cells assessed as reduction in cell viability. In kind it is functional, cell-based.
For assay [3], the system named is T98G. In words: Antiproliferative activity against human T98G cells assessed as reduction in cell viability incubated for 72 hrs by WST-8 reagent based assay. It counts as functional. For orientation: Tetrazolium assays rely on reduction of a dye to a coloured formazan, in cell work by metabolically active cells.
In assay [4] the test system is U-87 MG. In words: Antiproliferative activity against human U-87 MG cells assessed as reduction in cell viability incubated for 72 hrs by WST-8 reagent based assay. In kind it is functional, U-87MG ATCC.
The nature of assay [5]: Inhibition of colony formation in human U-251MG cells assessed as reduction in number of cell clone measured after 14 days by crystal violet staining based microscopic analysis. It counts as functional. The note with it: 336 h.
The subject of assay [6] is T98G. Kind of assay: Inhibition of colony formation in human T98G cells assessed as reduction in number of cell clone measured after 14 days by crystal violet staining based microscopic analysis. In kind it is functional. Particulars: 336 h.
Assay [7] relates to U-87 MG. Kind of assay: Antitumor activity against human U-87 MG cells xenografted in BALB/c nude mouse model assessed as reduction in tumor volume at 40 mg/kg, ip administered twice a day for 4 days relative to control. It counts as functional, U-87MG ATCC. Further details: scale not given: the % may be the effect or the level left. The note with it: time 4 day. For orientation: Xenograft models place foreign cells or tissue in a host animal.

Assay [8] concerns U-251. Kind of assay: Antiproliferative activity against human U-251MG cells assessed as reduction in cell growth incubated for 72 hrs by MTT assay. The note with it: U-251, 72 h. It counts as functional, cell-based.
In assay [9] the test system is C6. Kind of assay: Antiproliferative activity against rat C6 cells assessed as reduction in cell growth incubated for 48 hrs by MTT assay. It counts as functional, cell-based. The note with it: C6, 48 h.
Assay [10] concerns C6. In words: Antiproliferative activity against rat C6 cells assessed as reduction in cell growth incubated for 24 hrs by MTT assay. It counts as functional.
Assay [11] relates to U-251. In words: Antiproliferative activity against human U-251MG cells assessed as reduction in cell growth incubated for 48 hrs by MTT assay. It counts as functional, cell-based. Particulars: U-251, 48 h.
Assay [12] relates to C6. Kind of assay: Antiproliferative activity against rat C6 cells assessed as reduction in cell growth incubated for 72 hrs by MTT assay. It counts as functional, cell-based. The note with it: C6, 72 h.
For assay [13], the system named is U-251. Kind of assay: Antiproliferative activity against human U-251MG cells assessed as reduction in cell growth incubated for 24 hrs by MTT assay. It counts as functional, cell-based. The note with it: U-251, 24 h.
The test system of assay [14] is CAKI-1. Kind of assay: Antitumor activity against human CAKI-1 cells xenografted in BALB/c athymic nude mouse assessed as inhibition of tumor growth at 5 mg/kg, po administered 5 times per week and measured for 3 times per week for 42 days relative to control. In kind it is functional. The note with it: CAKI-1, 1008 h, time 42 day, read-out: TGI.
Assay [15] has as its system U-251. In words: Cytotoxicity against human U-251MG cells assessed as reduction in cell growth. In kind it is functional, cell-based.
Assay [16] deals with T98G. In words: Induction of apoptosis in human T98G cells at 10 ug/ml relative to control. Particulars: dose 10 µg/ml. In kind it is functional.
In assay [17] the test system is T98G. In words: Antiproliferative activity against human T98G cells assessed as reduction in cell viability incubated for 96 hrs by MTT assay. In kind it is functional, cell-based.
Assay [18] in a line: Anticancer activity against human U373 MG cells assessed as reduction in cell viability incubated for 72 hrs by MTT assay. It counts as functional, cell-based, U-373MG ATCC.
Assay [19] has as its system C6. Kind of assay: Antiproliferative activity against rat C6 cells assessed as reduction in cell viability incubated foe 24 hrs by MTT assay. It counts as functional, cell-based. The note with it: C6, 24 h.
Assay [20] has as its system LN-18. Kind of assay: Antiproliferative activity against human LN-18 cells assessed as reduction in cell viability incubated for 48 hrs by CCK-8 assay. It counts as functional, cell-based. Particulars: LN-18, 48 h.
Assay [21] relates to U-251. In words: Antiproliferative activity against human U-251MG cells assessed as reduction in cell viability at 50 uM incubated for 48 hrs by CCK-8 assay relative to control. It counts as functional.
Assay [22] has as its system U-87 MG. Kind of assay: Antiproliferative activity against human U-87 MG cells assessed as reduction in cell viability incubated for 48 hrs by CCK-8 assay. In kind it is functional, cell-based, U-87MG ATCC.
Assay [23] deals with U-87 MG. In words: Antiproliferative activity against human U-87 MG cells assessed as reduction in cell viability incubated foe 24 hrs by MTT assay. In kind it is functional, cell-based, U-87MG ATCC.
For assay [24], the system named is U-87 MG. In words: Antiproliferative activity against human U-87 MG cells assessed as reduction in cell viability at 50 uM incubated for 48 hrs by CCK-8 assay relative to control. In kind it is functional, U-87MG ATCC.
For assay [25], the system named is U-251. In words: Cytotoxicity against human U-251MG cells assessed as reduction in cell growth incubated for 72 hrs by MTT assay. Particulars: U-251, 72 h. In kind it is functional, cell-based.

As a reminder, the IC50 is the midpoint of a concentration-inhibition curve. Usually EC50 stands for the concentration that produces a half-maximal response.

In the case of `COc1ccc(C[C@@H]2c3cc(Oc4cc(C[C@@H]5c6cc(OC)c(OC)cc6CCN5C)ccc4O)c(OC)cc3CCN2C)cc1` [NEFERINE], the half-maximal inhibitory concentration (IC50) in [1] was 12 µM.
Consider `COc1ccc(Cc2nccc3cc(OC)c(OC)cc23)cc1OC` [PAPAVERINE], for which the 50% effective concentration (EC50) in [2] is 3.1 µM; in [3] it was 42 µM; in [4] it was 42 µM; in assay [5] it was 11 µM; in assay [6], 4.5 µM. Also, in assay [7], the Activity stood at 63%.
For the molecule `COc1ccc2c(c1OC)CN(C)c1c-2ccc2cc3c(cc12)OCO3` [DIHYDROCHELERYTHRINE], the EC50 worked out at 91.2 µM in assay [8]; 99.8 µM in [9]; 121.4 µM in assay [10]; 94.2 µM in assay [11]; 93.3 µM in assay [12]; 112 µM in [13].
For the molecule `COc1ccc2c3c(c4cc(OC)c(OC)cc4c2c1)C[C@H]1CCCN1C3` [(-)-ANTOFINE], the inhibition in vivo at 5 mg/kg in assay [14] was found to be 59%. In addition, in assay [15], the concentration for half-maximal inhibition (IC50) is 0.211 µM.
In assay [16], `COc1ccc2c(c1O)-c1c(O)c(OC)cc3c1[C@H](C2)[N+](C)(C)CC3` [MAGNOFLORINE] returned an Activity of 24.02%. Besides, in [17], the IC50 came out at 112 µg/mL.
On to `COc1cc2c(cc1O)CCN[C@]21CS[C@@H]2c3c(OC(C)=O)c(C)c4c(c3[C@@H](COC1=O)N1[C@@H]2[C@H]2c3c(cc(C)c(OC)c3O)C[C@@H]([C@@H]1C#N)N2C)OCO4`, for which, in assay [18], the IC50 worked out at 0.0031 µM.
In the case of `COc1cc2c[n+](C)c3c4cc5c(cc4ccc3c2cc1OC)OCO5.[Cl-]` [NITIDINE CHLORIDE], the 50% inhibitory concentration (IC50) in [19] stood at 8 µM; in assay [20], 5 µM; in assay [22] it was 5 µM; in [23], 10 µM. For the same molecule, the Activity in assay [21] and in [24] was roughly 50% throughout.
As to `COc1ccc2c3c(c4cc(OC)c(OC)cc4c2c1)CN1CCC[C@H]1C3`, the EC50 in assay [3] came out at 40 µM; in [4] it was 29 µM. In addition, the IC50 in assay [25] was 3.34 µM.
